{
  "source": "ChEMBL document CHEMBL1221220",
  "about": "“Transport and signaling via the amino acid binding site of the yeast Gap1 amino acid transceptor” (Nat Chem Biol, 2009)",
  "key": {"[1]": {"tested_on": "T1, General amino-acid permease GAP1 (Saccharomyces cerevisiae), P19145 [A405C]", "T1 sequence (whole entry)": "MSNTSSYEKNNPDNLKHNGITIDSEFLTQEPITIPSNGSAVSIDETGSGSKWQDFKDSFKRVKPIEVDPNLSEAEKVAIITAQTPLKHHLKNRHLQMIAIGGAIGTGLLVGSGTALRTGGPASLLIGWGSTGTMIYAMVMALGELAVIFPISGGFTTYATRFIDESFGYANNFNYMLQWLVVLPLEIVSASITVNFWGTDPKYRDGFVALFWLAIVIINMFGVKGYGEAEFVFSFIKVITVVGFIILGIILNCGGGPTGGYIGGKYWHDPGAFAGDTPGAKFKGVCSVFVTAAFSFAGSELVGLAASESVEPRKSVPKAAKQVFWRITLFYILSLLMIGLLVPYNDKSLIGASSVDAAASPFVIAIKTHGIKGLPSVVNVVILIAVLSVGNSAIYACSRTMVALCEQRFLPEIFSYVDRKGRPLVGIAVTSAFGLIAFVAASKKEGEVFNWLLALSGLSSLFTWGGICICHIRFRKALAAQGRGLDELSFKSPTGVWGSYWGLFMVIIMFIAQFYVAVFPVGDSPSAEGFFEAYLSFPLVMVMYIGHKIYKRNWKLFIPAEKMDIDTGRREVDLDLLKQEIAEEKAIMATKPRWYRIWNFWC", "test": "Activation of yeast Gap1 A405C mutant-mediated amino acid uptake at 10 mM"}, "[2]": {"tested_on": "T2, General amino-acid permease GAP1 (Saccharomyces cerevisiae), P19145 [I382C]", "T2 sequence (whole entry)": "T1 sequence (whole entry) with I382C, C405A", "test": "Induction of yeast Gap1 I382C mutant-mediated trehalose activation at 10 mM"}, "[3]": {"tested_on": "T3, General amino-acid permease GAP1 (Saccharomyces cerevisiae), P19145 [A396C]", "T3 sequence (whole entry)": "T1 sequence (whole entry) with A396C, C405A", "test": "Induction of yeast Gap1 A396C mutant-mediated trehalose activation at 10 mM"}, "[4]": {"tested_on": "T4, General amino-acid permease GAP1 (Saccharomyces cerevisiae), P19145 [M401C]", "T4 sequence (whole entry)": "T1 sequence (whole entry) with M401C, C405A", "test": "Induction of yeast Gap1 M401C mutant-mediated trehalose activation at 2 mM in presence of 10 mM MTSEA treated before compound addition"}, "[5]": {"tested_on": "T1, General amino-acid permease GAP1 (Saccharomyces cerevisiae), P19145 [A405C]", "test": "Induction of yeast GAP1 A405C mutant-mediated amino acid uptake at 2 mM in presence of 10 mM MTSEA treated before compound addition"}},
  "note": "Where a chain is given by its changes, count along the chain named. Activity calls are given as the source filed them. The calls are words filed in the database; no cut-off is given here.",
  "data": [
    {"smiles": "NC(=O)NCCC[C@H](N)C(=O)O", "values": [
      {"measurement": "Activity", "setting": "[1]", "result": "inactive"},
      {"measurement": "Activity", "setting": "[2]", "result": "inactive"},
      {"measurement": "Activity", "setting": "[3]", "result": "inactive"},
      {"measurement": "inhibition", "setting": "[4]", "result": "Active"},
      {"measurement": "Activity", "setting": "[5]", "result": "Active"}
    ]}
  ]
}
